Results reported in US5294603A, “Pharmaceutical compositions containing didemnins” (The Board of Trustees of The University of Illinois, priority 1992, dated 1994).
Values after ≈ are worked out from the molar mass of the structure shown. “Also recorded” adds a separate entry of the source. Numbered stars: 1 amine (or outer) side, 2 acyl side, 3 side chain; on linkers, the order of the positions; unused ones are H or OH. Bridge positions count the residues as written; N and C are the ends. Square brackets hold non-standard residues; d marks the D form. Peptide text beside a SMILES is read from it. * marks the point of attachment. X14 = CC[C@H](C)[C@@H](N[*:1])[C@@H](O)CC(=O)O[C@@H](C(C)C)[C@@H](O)[C@H](C)C(=O)[*:2]; X7 = CC[C@H](C)[C@@H](N[*:1])[C@@H](O)CC(=O)O[C@H](C(=NO)[C@H](C)C(=O)[*:2])C(C)C; X1 = CC[C@H](C)[C@@H](N[*:1])[C@@H](O)CC(=O)O[C@H](C(=O)[C@H](C)C(=O)[*:2])C(C)C; NMeY = CN[C@@H](Cc1ccc(O)cc1)C(=O)O; dNMeL = CN[C@H](CC(C)C)C(=O)O; Isobutyryl = CC(C)C(=O)*; Pyruvoyl = CC(=O)C(=O)*

Experiments:
[1] = test system: VSV; type: cell-based, vesicular stomatitis virus
[2] = test system: L1210 cells
[3] = earlier work of Gloer; cited from earlier work
[4] = test system: CV-1 monkey kidney cells
[5] = test system: L1210 murine leukemia cells; conditions: Table 9
[6] = test system: HSV-1; type: cell-based, Herpes simplex virus Type I
[7] = test system: Nb2 cells, rat T-cell node lymphoma; experiment: Competitive binding with [3H]didemnin B to Nb2 cells; conditions: 3 h at 37° C.
Description: The immunosuppressive assay was performed by measuring competitive binding of tested compounds with [^3 H]didemnin B to Nb2 cells, rat T-cell node lymphoma. See, Russell, D. H., et al., J. Immunology, 1987, 138, 276-284.
^a Competing didemnins incubated with approximately 25 ng of [^3

[8] = test system: Visna virus (VIV); type: cell-based
[9] = test system: BHK = Baby hamster kidney cells
[10] = test system: B16 melanoma; experiment: In vivo antitumor activity, B16; design: species or system mice; conditions: for T/C (treated/control): significant >125%
Description: (§1) Compound 106 was prepared semisynthetically for in vivo antitumor testing in mice.
(§2) ^b Schedule 1-9 days i. p.
^e B16 melanoma. Median survival of control mice, 17.0 days.

[11] = test system: Lewis lung carcinoma; experiment: In vivo antitumor activity, Lewis lung; design: species or system mice
Description: as §1, §2
^f Lewis lung carcinoma, median tumor volume of control mice 1372

[12] = test system: P388 murine lymphoma; experiment: In vivo antitumor activity, P388; design: species or system mice; conditions: for T/C (treated/control): significant >125%
Description: as §1, §2
^d P388 murine lymphoma. Median survival of control mice, 10.0 days.

CC[C@H](C)[C@H]1NC(=O)[C@@H](NC(=O)[C@@H](CC(C)C)N(C)C(=O)[C@H]2CCCN2C(=O)C(C)=O)[C@@H](C)OC(=O)[C@H](Cc2ccc(OC)cc2)N(C)C(=O)[C@@H]2CCCN2C(=O)[C@H](CC(C)C)NC(=O)[C@@H](C)C(=O)[C@H](C(C)C)OC(=O)C[C@@H]1O [Pyruv-D-Pro-DA, Pyruv-D-Pro Didemnin A] (Pyruvoyl-[dP][dNMeL]T[X1]LP[NMeY](Me); ester 3-C)
VSV [1]: + ++
IC50 [2]: 6 ng/mL (≈ 5.4 nM)
cytotoxicity compared with DDB [2]: only partially active

CC[C@H](C)[C@H]1NC(=O)[C@@H](NC(=O)[C@@H](CC(C)C)NC)[C@@H](C)OC(=O)[C@H](Cc2ccc(OC)cc2)N(C)C(=O)[C@@H]2CCCN2C(=O)[C@H](CC(C)C)NC(=O)[C@@H](C)[C@H](O)[C@H](C(C)C)OC(=O)C[C@@H]1O [[Dihydro(2S,3S,4S)Hip^2]didemnin A, reference compound] (H-[dNMeL]T[X14]LP[NMeY](Me); ester 2-C)
cytotoxicity compared with Compound 1 [3]: weaker cytotoxicity than Compound 1

CC[C@H](C)[C@H]1NC(=O)[C@@H](NC(=O)[C@@H](CC(C)C)NC)[C@@H](C)OC(=O)[C@H](Cc2ccc(OC)cc2)N(C)C(=O)[C@@H]2CCCN2C(=O)[C@H](CC(C)C)NC(=O)[C@@H](C)C(=NO)[C@H](C(C)C)OC(=O)C[C@@H]1O [[HydroxyiminoHip^2]-Didemnin A (65), [HydroxyiminoHip^2]didemnin A] (H-[dNMeL]T[X7]LP[NMeY](Me); ester 2-C)
CV-1 [4]: 0
Cytotoxicity L1210 IC50 [5]: 20 ng/mL

CC[C@H](C)[C@H]1NC(=O)[C@@H](NC(=O)[C@@H](CC(C)C)N(C)C(=O)[C@@H]2CCCN2C(=O)C(C)C)[C@@H](C)OC(=O)[C@H](Cc2ccc(OC)cc2)N(C)C(=O)[C@@H]2CCCN2C(=O)[C@H](CC(C)C)NC(=O)[C@@H](C)C(=O)[C@H](C(C)C)OC(=O)C[C@@H]1O [[Isobutyryl^9]didemnin B] (Isobutyryl-P[dNMeL]T[X1]LP[NMeY](Me); ester 3-C)
HSV-1 [6]: ++ +
Cytotoxicity L1210 IC50 [5]: 0.2 ng/mL
Inhibition of [3H]didemnin B binding (%) ([7]; 0.001 μg/mL): 2%
Inhibition of [3H]didemnin B binding (%) ([7]; 0.01 μg/mL): 4%
Inhibition of [3H]didemnin B binding (%) ([7]; 0.1 μg/mL): 59%
Inhibition of [3H]didemnin B binding (%) ([7]; 1 μg/mL): 75%
VIV Protection [8]: -93
BHK [9]: 0, PT

CC[C@H](C)[C@H]1NC(=O)[C@@H](NC(=O)[C@@H](CC(C)C)N(C)C(=O)[C@@H]2CCCN2C(=O)C(C)=O)[C@@H](C)OC(=O)[C@H](Cc2ccc(OC)cc2)N(C)C(=O)[C@@H]2CCCN2C(=O)[C@H](CC(C)C)NC(=O)[C@@H](C)C(=O)[C@H](C(C)C)OC(=O)C[C@@H]1O [[Pyruvyl^9]Didemnin B (106), Dehydrodidemnin B] (Pyruvoyl-P[dNMeL]T[X1]LP[NMeY](Me); ester 3-C)
Alive (day 24) ([10]; B16, 40 μg/kg/day): 0
Median Survival ([10]; B16, 40 μg/kg/day): 30 days
Body wt. chenge. ([10]; B16, 40 μg/kg/day i. p. days 1-9): 0.1 g
T/C (treated/control) ([10]; B16, 40 μg/kg/day): 178%
Alive (day 24) ([10]; B16, 80 μg/kg/day): 0
Median Survival ([10]; B16, 80 μg/kg/day): 32 days
Body wt. chenge. ([10]; B16, 80 μg/kg/day i. p. days 1-9): -0.5 g
T/C (treated/control) ([10]; B16, 80 μg/kg/day): 188%
Alive (day 24) ([10]; B16, 160 μg/kg/day): 0
Median Survival ([10]; B16, 160 μg/kg/day): 37 days
Body wt. chenge. ([10]; B16, 160 μg/kg/day i. p. days 1-9): -1.3 g
T/C (treated/control) ([10]; B16, 160 μg/kg/day): 218%
Median Tumor Vol. ([11]; 40 μg/kg/day): 473 mm^3
N. P. (Day 14), number of nonpalpable tumors ([11]; 40 μg/kg/day): 0
Body Wt. Chenge. ([11]; 40 μg/kg/day i. p. days 1-9): -2.6 g
Median Tumor Vol. ([11]; 80 μg/kg/day): 163 mm^3
N. P. (Day 14), number of nonpalpable tumors ([11]; 80 μg/kg/day): 2
Median Tumor Vol. ([11]; 160 μg/kg/day): 0 mm^3
N. P. (Day 14), number of nonpalpable tumors ([11]; 160 μg/kg/day): 5
Body Wt. Chenge. ([11]; 160 μg/kg/day i. p. days 1-9): -3.7 g
HSV-1 [6]: + +
antiviral activity against HSV-1 [6]: several times more active than DB; also recorded: high order
antiviral activity against VSV [1]: high order
IC50 [2]: 0.2 ng/mL (≈ 0.18 nM)
cytotoxic activity against L1210 [2]: several times more active than DB
Cytotoxicity L1210 IC50 [5]: 0.2 ng/mL
Alive (day 23) ([12]; P388, 80 μg/kg/day): 0
Median Survival ([12]; P388, 80 μg/kg/day): 19.5 days
Body wt. chenge. ([12]; P388, 80 μg/kg/day i. p. days 1-9): -1.4 g
T/C (treated/control) ([12]; P388, 80 μg/kg/day): 195%
Alive (day 23) ([12]; P388, 160 μg/kg/day): 0
Median Survival ([12]; P388, 160 μg/kg/day): 21.0 days
Body wt. chenge. ([12]; P388, 160 μg/kg/day i. p. days 1-9): -3.2 g
T/C (treated/control) ([12]; P388, 160 μg/kg/day): 210%
Alive (day 23) ([12]; P388, 320 μg/kg/day): 0
Median Survival ([12]; P388, 320 μg/kg/day): 6.0 days
Body wt. chenge. ([12]; P388, 320 μg/kg/day i. p. days 1-9): -3.3 g
T/C (treated/control) ([12]; P388, 320 μg/kg/day): 60%
VIV Protection [8]: -92
activity against VIV [8]: completely inactive
